Patent publication US7183075B2, “Purified and isolated potassium-chloride cotransporter nucleic acids and polypeptides and therapeutic and screening methods using same” (Vanderbilt University, priority 2000, dated 2007)

What was measured:
[1] = molecular target: mKCC4 mutant C256A/C469N/C565A/C647M (Mus musculus, UniProt Q9WVL3, C257A/C469N/C565A/C647M)
Method: (§1) Mercury is known to inhibit several transporters via interaction with transmembrane or juxtamembrane cysteines (Kuwahara et al. (1997) Biochemistry 36:13973–13978; Jacoby (1999) Am J Physiol 277:C684–692). Given the inhibition of the KCCs by millimolar NEM at room temperature, presumed due to alkylation of cysteine residues (Mercado et al. (2000) J Biol Chem 275:30326–3034), the differential response of the KCCs to 50 μM mercury (Hg—Cl2) was examined. […] Of note, a cysteine residue in TM11 of NKCC1 is involved in the response of Na^+—K^+-2Cl^− cotransport to mercury (Jacoby (1999) Am J Physiol 277:C684–692).

[2] = molecular target: mKCC4 mutant C256A/C469N/C565A/C647M/C633S (Mus musculus, UniProt Q9WVL3, C257A/C469N/C565A/C633S/C647M)
mKCC4 mutant C256A/C469N/C565A/C647M/C633S, sequence (Q9WVL3 whole entry C257A/C469N/C565A/C633S/C647M): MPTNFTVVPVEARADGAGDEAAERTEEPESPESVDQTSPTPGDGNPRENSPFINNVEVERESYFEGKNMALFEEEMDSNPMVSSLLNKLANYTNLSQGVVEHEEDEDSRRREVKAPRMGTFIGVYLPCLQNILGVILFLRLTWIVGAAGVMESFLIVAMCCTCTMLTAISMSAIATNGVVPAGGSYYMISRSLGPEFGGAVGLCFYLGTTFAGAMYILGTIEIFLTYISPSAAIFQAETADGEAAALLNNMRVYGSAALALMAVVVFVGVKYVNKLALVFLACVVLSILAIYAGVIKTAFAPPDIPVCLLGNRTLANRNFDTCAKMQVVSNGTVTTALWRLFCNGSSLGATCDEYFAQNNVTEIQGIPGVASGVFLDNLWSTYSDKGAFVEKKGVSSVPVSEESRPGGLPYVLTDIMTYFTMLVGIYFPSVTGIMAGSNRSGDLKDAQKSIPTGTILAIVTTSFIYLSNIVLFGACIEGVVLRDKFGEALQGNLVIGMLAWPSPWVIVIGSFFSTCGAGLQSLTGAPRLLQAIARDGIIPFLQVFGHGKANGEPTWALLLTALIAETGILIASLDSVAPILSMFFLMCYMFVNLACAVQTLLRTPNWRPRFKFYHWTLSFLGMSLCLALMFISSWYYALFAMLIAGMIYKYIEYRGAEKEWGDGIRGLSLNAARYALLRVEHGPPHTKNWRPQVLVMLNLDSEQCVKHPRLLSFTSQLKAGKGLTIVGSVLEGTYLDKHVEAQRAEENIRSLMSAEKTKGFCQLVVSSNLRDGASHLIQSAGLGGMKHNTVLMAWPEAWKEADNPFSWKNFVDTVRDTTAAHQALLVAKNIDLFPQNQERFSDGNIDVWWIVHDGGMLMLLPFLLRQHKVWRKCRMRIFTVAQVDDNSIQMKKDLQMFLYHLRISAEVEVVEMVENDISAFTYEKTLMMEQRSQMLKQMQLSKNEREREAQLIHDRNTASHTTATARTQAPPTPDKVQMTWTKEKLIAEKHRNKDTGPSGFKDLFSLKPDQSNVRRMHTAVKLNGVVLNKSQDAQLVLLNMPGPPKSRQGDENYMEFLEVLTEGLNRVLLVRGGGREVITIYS
Method: as §1

mKCC4 mutant C256A/C469N/C565A/C647M, sequence (Q9WVL3 whole entry C257A/C469N/C565A/C647M): as the sequence (Q9WVL3 whole entry C257A/C469N/C565A/C633S/C647M) above, with S633C counted along it

## HgCl2 [Hg—Cl2]
[1]
  response of quadruple mutant mKCC4 to HgCl2: weakly sensitive
[2]
  response of quintuple mutant mKCC4 to HgCl2: resistant
